Test results published in patent US8697145B2, “Substances having body mass redistribution properties” (Horizon Science Pty. Ltd., priority 2005, dated 2014).

How the values were obtained:
Sprague Dawley rats = assay: Body mass distribution of rats on high fat diet with tea treatments (DEXA); format: in vivo; conditions: at 11 and 18 weeks, vs water control
From the text: Animals and treatments: Male Sprague Dawley rats (n=48) were purchased from the Animal Resource Centre (Canning Vale, WA) at 3 weeks of age. Animals were allowed to acclimate for 1 week on Purina rat chow and water. From 4 weeks of age, all animals were provided with a semi-synthetic, high fat diet (15% fat, Table 6) (Specialty Feeds, Glen Forrest, WA) and administered one of four fluid treatments: Green Tea, Black Tea, Epigallocatechin Gallate (EGCG) or water. Tea and tea extracts were given as 100% of their fluid intake. Rats were maintained on the high fat diet and tea treatment until week 29. Food and fluid intakes were measured daily and body weights recorded weekly.
Green and Black tea: Green and Black tea bags (Dilmah Natural Green Tea™ and Dilmah Black Tea™) were purchased from a local retail outlet. Ten tea bags (approximately 2 g tea leaves/bag) were steeped in 1 liter of boiling tap water in a covered container for 3 minutes. Tea bags were then expelled of excess tea and the tea preparations made up to a 2 liter volume with cold tap water. This approximated to 1 tea bag per 200 ml of water. […]
Dual Energy X-ray Absorptiometry (DEXA): Body composition was determined by dual energy x-ray absorptiometry using a Hologic QDR-4000/W Absorptiometer. […] Fat, lean and total mass was measured, along with the percentage fat ratio and bone mineral content. […]

rats = conditions: treated rats (Zorad et al. 1995); cited from earlier work
α-glucosidase = assay: α-Glucosidase inhibition assay; format: biochemical
Method: α-Glucosidase: Molasses powder sample was solubilized in water prior to use in this assay. Fucoidan was included as a positive control, and was also solubilized in water.
Glucosidase enzyme was solubilized in acetate buffer (50 mM, pH 4.5) at a concentration of 0.7 mg/mL. This provided a final concentration of 0.2 U/mL. To a 96-well plate, 50 μL of enzyme was added to each well. A corresponding set of wells was also included, in which acetate buffer was added instead of enzyme. Sample/controls were then added to the wells (5 μL), in triplicate, followed by the substrate 4-Nitrophenyl-α-D-glucopyranoside (final concentration 2 mM). The plate was covered, shaken and then incubated at 37° C. for 30 minutes. The reaction was stopped with the addition of 0.2 M Na2CO3 (100 μL/well). Absorbance was measured at 405 nm, using a Victor^2 plate reader.
The absorbance of the wells containing sample, substrate, and buffer were subtracted from the corresponding wells containing the glucosidase enzyme and the percent inhibition by the samples was calculated compared to the solvent controls.

**Q.** For `O=C(O[C@@H]1Cc2c(O)cc(O)cc2O[C@@H]1c1cc(O)c(O)c(O)c1)c1cc(O)c(O)c(O)c1` [EGCG, (−)-epigallocatechin-3-gallate], which “grams of lean mass” value (Sprague Dawley rats) is on record?
**A.** The value was “significantly higher”.

**Q.** Which adipocyte size (rats) does the source give for `CCCCc1nc(Cl)c(CO)n1Cc1ccc(-c2ccccc2-c2nn[nH]n2)cc1` [losartan] here?
**A.** The adipocyte size was “reduction”.

**Q.** For Fucoidan, which “IC50 (α-glucosidase)” value (α-glucosidase) is on record?
**A.** Its value is 14 µg/mL.

**Q.** And the “% Inhibition of α-glucosidase” value (α-glucosidase; 4.7 μg/mL)?
**A.** The value was 5.7 ± 3.1%.

**Q.** What about the “% Inhibition of α-glucosidase” value (α-glucosidase; 9.4 μg/mL) of the same compound?
**A.** The value was 19.3 ± 2.7%.

**Q.** What about the “% Inhibition of α-glucosidase” value (α-glucosidase; 18.8 μg/mL) of the same compound?
**A.** The value was 73.5 ± 7.5%.

**Q.** What about the “% Inhibition of α-glucosidase” value (α-glucosidase; 37.5 μg/mL) of the same compound?
**A.** Its value is 97.4 ± 5.9%.
